Source: patent publication US20160058782A1, “MAILLARD REACTION INHIBITOR” (MORISHITA JINTAN CO., LTD., priority 2011, published 2016)
In brackets after ≈: the same amount, converted by molar mass.

Test system: Maillard reaction (Human Serum Albumin and Glucose)
Experiment: Measurement of the Maillard reaction inhibitory activity (fluorescent products of human serum albumin and glucose, 60° C., 40 hours)
Conditions: for IC50: human, 40 h; for IC50 values compared with tannic acid, ellagic acid dihydrate and aminoguanidine / Maillard reaction inhibitory activity compared with aminoguanidine (positive control) / Maillard reaction inhibition ratio (%) compared with ellagic acid dihydrate and aminoguanidine: in words; for Maillard reaction inhibitory activity compared with aminoguanidine (positive control): Tables 2 and 3; for Maillard reaction inhibition ratio (%) compared with ellagic acid dihydrate and aminoguanidine: when prepared at lower concentrations
Experimental: A pomegranate extract (containing 50% by mass of polyphenol; manufactured by Morishita Jintan Co., Ltd.), punicalin, punicalagin, oenothein B, eucarbanin B, punicacortein C, a compound represented by the formula (VI), and a compound represented by the formula (VII) were used as samples to be examined. Tannic acid and ellagic acid dihydrate were used for comparison. Aminoguanidine was used as a positive control. […], 300 μg/mL and 1,000 μg/mL, and the Maillard reaction inhibitory activity of the prepared solutions was measured. The inhibitory activity was measured as follows.
Four reaction solutions A to D shown in Table 1 below were prepared using the above-described prepared solutions of the samples, and were incubated at 60° C. for 40 hours to cause the Maillard reaction. Thereafter, 400 μL of the reaction solutions A to D was diluted with 2,400 μL of distilled water and diluted samples were obtained. The fluorescence intensity (the excitation light: 370 nm; the measurement light: 440 nm) of the diluted samples was measured and was expressed as a relative value with respect to the fluorescence intensity of 0.1 μg/mL solution of quinine sulfate that was taken as 100 to calculate the amount of fluorescent products of the Maillard reaction (quantitative value).
Next, the Maillard reaction inhibition ratio (%) with respect to the above-described prepared solutions (concentration (μg/mL)) of the samples was calculated from the obtained quantitative value using the following equation.
Equation: Inhibition ratio (%)=100−[(a−b)/(c−d)]×100 [Formula 1]
where a represents a relative value (−) of the fluorescent products of the Maillard reaction with the reaction solution A calculated in terms of quinine sulfate,
b represents a relative value (−) of the fluorescent products of the Maillard reaction in terms of quinine sulfate when the reaction solution B is used,
c represents a relative value (−) of the fluorescent products of the Maillard reaction in terms of quinine sulfate when the reaction solution C is used, and
d represents a relative value (−) of the fluorescent products of the Maillard reaction in terms of quinine sulfate when the reaction solution D is used.
Thereafter, 50% inhibition ratio (IC50) of each sample was calculated as follows. That is, the inhibition ratio was plotted with respect to the sample concentration, 4-parameter plot was performed, and the concentration showing an inhibition ratio of 50% was taken as IC50.

Row | SMILES | Maillard reaction inhibition ratio (%) (Conc. 0.01 mg/mL) | Maillard reaction inhibition ratio (%) (Conc. 0.03 mg/mL) | Maillard reaction inhibition ratio (%) (Conc. 0.1 mg/mL) | Maillard reaction inhibition ratio (%) (Conc. 0.3 mg/mL) | Maillard reaction inhibition ratio (%) (Conc. 1 mg/mL) | Maillard reaction inhibition ratio (%) (Conc. 10 mg/mL) | IC50 [µg/mL] | IC50 values compared with tannic acid, ellagic acid dihydrate and aminoguanidine | Maillard reaction inhibitory activity compared with aminoguanidine (positive control) | Maillard reaction inhibition ratio (%) compared with ellagic acid dihydrate and aminoguanidine | Maillard reaction inhibition ratio (%) (Conc. 100 mg/mL) | Maillard reaction inhibition ratio (%) (Conc. 300 mg/mL) | Maillard reaction inhibition ratio (%) (Conc. 1000 mg/mL)
1 | O=c1oc2c(O)c(O)cc3c(=O)oc4c(O)c(O)cc1c4c23 [Ellagic acid dihydrate, ellagic acid dihydrate, reference compound] | 1.9 | 2.2 | 12.0 | 44.8 | 68.3 | 78.4 | 0.34 | – | – | – | – | – | –
2 | O=C1OC2C(O)OC3COC(=O)c4cc(O)c(O)c(O)c4-c4c(O)c(O)c5oc(=O)c6c(c(O)c(O)c7oc(=O)c4c5c76)-c4c(cc(O)c(O)c4O)C(=O)O[C@H]3C2OC(=O)c2cc(O)c(O)c(O)c2-c2c1cc(O)c(O)c2O (stereo partly shown) [Punicalagin, punicalagin] | 4.3 | 10.9 | 36.2 | 71.4 | 73.5 | 86.1 | – | particularly low | superior Maillard reaction inhibitory activity to aminoguanidine | particularly superior | – | – | –
3 | O=C1OC[C@H]2OC(O)[C@H](O)[C@@H](O)[C@@H]2OC(=O)c2cc(O)c(O)c(O)c2-c2c(O)c(O)c3oc(=O)c4c(c(O)c(O)c5oc(=O)c2c3c54)-c2c1cc(O)c(O)c2O (stereo partly shown) [Punicalin, punicalin] | 7.6 | 6.5 | 32.1 | 69.6 | 73.1 | 84.9 | – | particularly low | superior Maillard reaction inhibitory activity to aminoguanidine | particularly superior | – | – | –
4 | O=C(OC1C(O)OC2COC(=O)c3cc(Oc4c(C(=O)OC5C(O)OC6COC(=O)c7cc(O)c(O)c(O)c7-c7c(cc(O)c(O)c7O)C(=O)O[C@H]6C5OC(=O)c5cc(O)c(O)c(O)c5)cc(O)c(O)c4O)c(O)c(O)c3-c3c(cc(O)c(O)c3O)C(=O)O[C@H]2C1OC(=O)c1cc(O)c(O)c(O)c1)c1cc(O)c(O)c(O)c1 (stereo partly shown) [Eucarbanin B, eucarbanin B] | – | – | 21.2 | – | 72.9 | 79.4 | 0.43 (≈ 0.274 µM) | – | superior Maillard reaction inhibitory activity to aminoguanidine | – | – | – | –
5 | N=C(N)NN [Aminoguanidine, reference compound] | – | – | – | – | – | – | 273 (≈ 3690 µM) | – | – | – | 40.2 | 51.4 | 62
6 | O=C(OC1C(O)OC2COC(=O)c3cc(Oc4c(C(=O)OC5C(O)OC6COC(=O)c7cc(Oc8c(C(=O)OC9C(O)OC%10COC(=O)c%11cc(O)c(O)c(O)c%11-c%11c(cc(O)c(O)c%11O)C(=O)O[C@H]%10C9OC(=O)c9cc(O)c(O)c(O)c9)cc(O)c(O)c8O)c(O)c(O)c7-c7c(cc(O)c(O)c7O)C(=O)O[C@H]6C5OC(=O)c5cc(O)c(O)c(O)c5)cc(O)c(O)c4O)c(O)c(O)c3-c3c(cc(O)c(O)c3O)C(=O)O[C@H]2C1OC(=O)c1cc(O)c(O)c(O)c1)c1cc(O)c(O)c(O)c1 (stereo partly shown) [Compound represented by the formula (VI)] | – | – | 46.6 | – | 76.7 | 95.4 | 0.13 | particularly low | superior Maillard reaction inhibitory activity to aminoguanidine | – | – | – | –
7 | O=C(OC1C(O)OC2COC(=O)c3cc(Oc4c(C(=O)OC5C(O)OC6COC(=O)c7cc(Oc8c(C(=O)OC9C(O)OC%10COC(=O)c%11cc(Oc%12c(C(=O)OC%13C(O)OC%14COC(=O)c%15cc(O)c(O)c(O)c%15-c%15c(cc(O)c(O)c%15O)C(=O)O[C@H]%14C%13OC(=O)c%13cc(O)c(O)c(O)c%13)cc(O)c(O)c%12O)c(O)c(O)c%11-c%11c(cc(O)c(O)c%11O)C(=O)O[C@H]%10C9OC(=O)c9cc(O)c(O)c(O)c9)cc(O)c(O)c8O)c(O)c(O)c7-c7c(cc(O)c(O)c7O)C(=O)O[C@H]6C5OC(=O)c5cc(O)c(O)c(O)c5)cc(O)c(O)c4O)c(O)c(O)c3-c3c(cc(O)c(O)c3O)C(=O)O[C@H]2C1OC(=O)c1cc(O)c(O)c(O)c1)c1cc(O)c(O)c(O)c1 (stereo partly shown) | 30.4 | – | 40.3 | – | 74.3 | 82.5 | – | particularly low | superior Maillard reaction inhibitory activity to aminoguanidine | particularly superior | – | – | –
8 | O=C(OC[C@H]1O[C@@H](OC(=O)c2cc(O)c(O)c(OC(=O)c3cc(O)c(O)c(O)c3)c2)[C@H](OC(=O)c2cc(O)c(O)c(OC(=O)c3cc(O)c(O)c(O)c3)c2)[C@@H](OC(=O)c2cc(O)c(O)c(OC(=O)c3cc(O)c(O)c(O)c3)c2)[C@@H]1OC(=O)c1cc(O)c(O)c(OC(=O)c2cc(O)c(O)c(O)c2)c1)c1cc(O)c(O)c(OC(=O)c2cc(O)c(O)c(O)c2)c1 [Tannic acid, reference compound] | 12.7 | – | 48.7 | – | 65.1 | 68.8 | 0.31 (≈ 0.182 µM) | – | – | – | – | – | –
